Data reported in US7608604B2, “Antiparasitic agents” (Pfizer Limited, priority 2007, dated 2009).

System: Haemonchus contortus L3
Test: Haemonchus contortus L3 (HcL3) in vitro test
Type: cell-based
Conditions: minimum effective dose
Procedure: The Haemonchus contortus L3 (HcL3) test is used to measure the biological activities of the compounds claimed. The assay involves in vitro testing against H. contortus conducted according to the following general procedure.
HcL3 larvae were collected from infected sheep and, after cleaning, stored in water at 12° C. for up to one month. Viable infective larvae were exsheathed using 10% hypochlorite in Glucose Tyrodes balanced salt solution containing antibiotics and resuspended in basal medium (20 g/l bacto-tryptone, 5 g/l yeast extract, 57 g/l glucose, 0.8 g/l di-Potassium hydrogen orthophosphate, 0.8 g/l potassium dihydrogen orthophosphate and […] Hepes with antibiotics). 95 μl worm suspension was added to each well of a 96 well plate.
Test compounds were dissolved in dimethylsulfoxide to give a working stock solution of 20 mg/ml. The stock concentration was diluted 1:10 in Basal media to give 2.0 mg/ml (10% DMSO). 5 μl of the stock compound solution was added to the worm suspension to give a final concentration of 100 μg/ml. Plates were sealed with pressure sensitive film and incubated at 37° C. Observations were made 2 hrs, 24 hrs, 48 hrs, 72 hrs and 4 days post-treatment using an inverted microscope. Activity was recorded if a significant proportion of the worms were dead or adversely affected by the compound when compared to the control well containing 1% DMSO. Compounds were initially tested at 100 μg/ml, wherefrom relevant dose responses (100, 30, 10, 3, 1, 0.3, 0.1 μg/ml) were conducted in duplicate experiments to generate n=2. Data was recorded as minimum effective dose.

[1] = table of Examples 13a-42, 13a/b, 27a/b, 29a/b, 33a/b tested as mixtures of regioisomers

SMILES | H.c. (L3) MED [1] [µg/mL] | other results
CC(C#N)(COc1ccc(C#N)c(Cl)c1)NC(=O)c1ccc(S(F)(F)(F)(F)F)cc1 (centres unmarked) [Example 6, N-[2-(3-Chloro-4-cyanophenoxy)-1-cyano-1-methylethyl]-4-(pentafluorothio)benzamide] | – | H.c. (L3) MED (table of Examples 5-11): 3 µg/mL
CC(C#N)(COc1cc(C#N)cc(C(F)(F)F)c1)NC(=O)c1ccc(S(F)(F)(F)(F)F)cc1 (centres unmarked) [Example 7, N-{1-cyano-2-[3-cyano-5-(trifluoromethyl)phenoxy]-1-methylethyl}-4-(pentafluorothio)benzamide] | – | H.c. (L3) MED (table of Examples 5-11): 30 µg/mL
CC(C#N)(COc1c(F)cc(F)cc1C#N)NC(=O)c1ccc(S(F)(F)(F)(F)F)cc1 (centres unmarked) [Example 8, N-[1-Cyano-2-(2-cyano-4,6-difluorophenoxy)-1-methylethyl]-4-(pentafluorothio)benzamide] | – | H.c. (L3) MED (table of Examples 5-11): 30 µg/mL
CC(C#N)(COc1cc(C#N)ccc1C#N)NC(=O)c1ccc(S(F)(F)(F)(F)F)cc1 (centres unmarked) [Example 9, N-[1-Cyano-2-(3,6-dicyanophenoxy)-1-methylethyl]-4-(pentafluorothio)benzamide] | – | H.c. (L3) MED (table of Examples 5-11): 3 µg/mL
CC(C#N)(COc1ccc(Br)cc1C(F)(F)F)NC(=O)c1ccc(S(F)(F)(F)(F)F)cc1 (centres unmarked) [Example 10, N-{2-[4-Bromo-2-(trifluoromethyl)phenoxy]-1-cyano-1-methylethyl}-4-(pentafluorothio)benzamide] | – | H.c. (L3) MED (table of Examples 5-11): 10 µg/mL
CC(C#N)(COc1ccc(C#N)cc1Br)NC(=O)c1ccc(S(F)(F)(F)(F)F)cc1 (centres unmarked) [Example 11, N-[2-(2-Bromo-4-cyanophenoxy)-1-cyano-1-methylethyl]-4-(pentafluorothio)benzamide] | – | H.c. (L3) MED (table of Examples 5-11): 3 µg/mL
CC(C#N)(COc1ccc(Cl)cc1Cl)NC(=O)c1ccc(S(F)(F)(F)(F)F)cc1 (centres unmarked) [Example 12, N-[1-Cyano-2-(2,4-dichlorophenoxy)-1-methylethyl]-4-(pentafluorothio)benzamide] | – | in vitro H.c. (L3) MED (unit not given): 3
CC(C#N)(COc1cc(Cl)cc(C#N)c1)NC(=O)c1ccc(S(F)(F)(F)(F)F)cc1 (centres unmarked) [Example 14, N-[2-(3-Chloro-5-cyanophenoxy)-1-cyano-1-methylethyl]-4-(pentafluorothio)benzamide] | 3 | –
CC(C#N)(COc1cc(Br)ccc1C#N)NC(=O)c1ccc(S(F)(F)(F)(F)F)cc1 (centres unmarked) [Example 16, N-[2-(5-Bromo-2-cyanophenoxy)-1-cyano-1-methylethyl]-4-(pentafluorothio)benzamide] | 10 | –
CC(C#N)(COc1ccc(Cl)cc1C#N)NC(=O)c1ccc(S(F)(F)(F)(F)F)cc1 (centres unmarked) [Example 17, N-[2-(4-Chloro-2-cyanophenoxy)-1-cyano-1-methylethyl]-4-(pentafluorothio)benzamide] | 3 | –
CC(C#N)(COc1cccc(F)c1C#N)NC(=O)c1ccc(S(F)(F)(F)(F)F)cc1 (centres unmarked) [Example 18, N-[1-Cyano-2-(2-cyano-3-fluorophenoxy)-1-methylethyl]-4-(pentafluorothio)benzamide] | 10 | –
CC(C#N)(COc1ccccc1C#N)NC(=O)c1ccc(S(F)(F)(F)(F)F)cc1 (centres unmarked) [Example 19, N-[1-Cyano-2-(2-cyanophenoxy)-1-methylethyl]-4-(pentafluorothio)benzamide] | 10 | –
CC(C#N)(COc1ccc(I)cc1)NC(=O)c1ccc(S(F)(F)(F)(F)F)cc1 (centres unmarked) [Example 20, N-[1-Cyano-2-(4-iodophenoxy)-1-methylethyl]-4-(pentafluorothio)benzamide] | 3 | –
CC(C#N)(COc1ccccc1C(F)(F)F)NC(=O)c1ccc(S(F)(F)(F)(F)F)cc1 (centres unmarked) [Example 21, N-{1-Cyano-1-methyl-2-[2-(trifluoromethyl)phenoxy]ethyl}-4-(pentafluorothio)benzamide] | 30 | –
CC(C#N)(COc1ccc(C#N)cc1)NC(=O)c1ccc(S(F)(F)(F)(F)F)cc1 (centres unmarked) [Example 22, N-[1-Cyano-2-(4-cyanophenoxy)-1-methylethyl]-4-(pentafluorothio)benzamide] | 10 | –
CC(C#N)(COc1cc(F)cc(Cl)c1)NC(=O)c1ccc(S(F)(F)(F)(F)F)cc1 (centres unmarked) [Example 23, N-[2-(3-Chloro-5-fluorophenoxy)-1-cyano-1-methylethyl]-4-(pentafluorothio)benzamide] | 30 | –
CC(C#N)(COc1cc(Cl)ccc1C#N)NC(=O)c1ccc(S(F)(F)(F)(F)F)cc1 (centres unmarked) [Example 24, N-[2-(5-Chloro-2-cyanophenoxy)-1-cyano-1-methylethyl]4-(pentafluorothio)benzamide] | 3 | –
CC(C#N)(COc1ccccc1Cl)NC(=O)c1ccc(S(F)(F)(F)(F)F)cc1 (centres unmarked) [Example 25, N-[2-(2-Chlorophenoxy)-1-cyano-1-methylethyl]-4-(pentafluorothio)benzamide] | 10 | –

SMILES | H.c. (L3) MED [1] [µg/mL] | other results
CC(C#N)(COc1cccc(Cl)c1C#N)NC(=O)c1ccc(S(F)(F)(F)(F)F)cc1 (centres unmarked) [Example 26, N-[2-(3-Chloro-2-cyanophenoxy)-1-cyano-1-methylethyl]-4-(pentafluorothio)benzamide] | 10 | –
CC(C#N)(COc1ccc(F)cc1C#N)NC(=O)c1ccc(S(F)(F)(F)(F)F)cc1 (centres unmarked) [Example 27a, N-[1-Cyano-2-(2-cyano-4-fluorophenoxy)-1-methylethyl]-4-(pentafluorothio)benzamide] | 3 | –
CC(C#N)(COc1ccc(F)c(C#N)c1)NC(=O)c1ccc(S(F)(F)(F)(F)F)cc1 (centres unmarked) [Example 27b, N-[1-Cyano-2-(3-cyano-4-fluorophenoxy)-1-methylethyl]-4-(pentafluorothio)benzamide] | 3 | –
CC(C#N)(COc1ccc(Cl)cc1F)NC(=O)c1ccc(S(F)(F)(F)(F)F)cc1 (centres unmarked) [Example 28, N-[2-(4-Chloro-2-fluorophenoxy)-1-cyano-1-methylethyl]-4-(pentafluorothio)benzamide] | 3 | –
CC(C#N)(COc1ccc(C#N)cc1F)NC(=O)c1ccc(S(F)(F)(F)(F)F)cc1 (centres unmarked) [Example 29a, N-[1-Cyano-2-(4-cyano-2-fluorophenoxy)-1-methylethyl]-4-(pentafluorothio)benzamide] | 10 | –
CC(C#N)(COc1cc(C#N)ccc1F)NC(=O)c1ccc(S(F)(F)(F)(F)F)cc1 (centres unmarked) [Example 29b, N-[1-Cyano-2-(5-cyano-2-fluorophenoxy)-1-methylethyl]-4-(pentafluorothio)benzamide] | 10 | –
CC(C#N)(COc1ccc(C(F)(F)F)cc1F)NC(=O)c1ccc(S(F)(F)(F)(F)F)cc1 (centres unmarked) [Example 30, N-{1-Cyano-2-[2-fluoro-4-(trifluoromethyl)phenoxy]-1-methylethyl}-4-(pentafluorothio)benzamide] | 10 | –
CC(C#N)(COc1cccc(Cl)c1)NC(=O)c1ccc(S(F)(F)(F)(F)F)cc1 (centres unmarked) [Example 31] | 10 | –
CC(C#N)(COc1cc(C#N)ccc1Br)NC(=O)c1ccc(S(F)(F)(F)(F)F)cc1 (centres unmarked) [Example 32, N-[2-(2-Bromo-5-cyanophenoxy)-1-cyano-1-methylethyl]-4-(pentafluorothio)benzamide] | 3 | –
CC(C#N)(COc1ccc(F)cc1Br)NC(=O)c1ccc(S(F)(F)(F)(F)F)cc1 (centres unmarked) [Example 33a, N-[2-(2-Bromo-4-fluorophenoxy)-1-cyano-1-methylethyl]-4-(pentafluorothio)benzamide] | 10 | –
CC(C#N)(COc1ccc(F)c(Br)c1)NC(=O)c1ccc(S(F)(F)(F)(F)F)cc1 (centres unmarked) [Example 33b, N-[2-(3-Bromo-4-fluorophenoxy)-1-cyano-1-methylethyl]-4-(pentafluorothio)benzamide] | 10 | –
CC(C#N)(COc1ccc(Br)cc1F)NC(=O)c1ccc(S(F)(F)(F)(F)F)cc1 (centres unmarked) [Example 34, N-[2-(4-Bromo-2-fluorophenoxy)-1-cyano-1-methylethyl]-4-(pentafluorothio)benzamide] | 10 | –
CC(C#N)(COc1cc(Br)cc(C#N)c1)NC(=O)c1ccc(S(F)(F)(F)(F)F)cc1 (centres unmarked) [Example 35, N-[2-(3-Bromo-5-cyanophenoxy)-1-cyano-1-methylethyl]-4-(pentafluorothio)benzamide] | 3 | –
CC(C#N)(COc1cccc(C#N)c1C(F)(F)F)NC(=O)c1ccc(S(F)(F)(F)(F)F)cc1 (centres unmarked) [Example 36, N-{1-Cyano-2-[3-cyano-2-(trifluoromethyl)phenoxy]-1-methylethyl}-4-(pentafluorothio)benzamide] | 10 | –
CC(C#N)(COc1cccc(C#N)c1Br)NC(=O)c1ccc(S(F)(F)(F)(F)F)cc1 (centres unmarked) [Example 37, N-[2-(2-Bromo-3-cyanophenoxy)-1-cyano-1-methylethyl]-4-(pentafluorothio)benzamide] | 3 | –
CC(C#N)(COc1cc(Cl)ccc1Cl)NC(=O)c1ccc(S(F)(F)(F)(F)F)cc1 (centres unmarked) [Example 38, N-[1-Cyano-2-(2,5-dichlorophenoxy)-1-methylethyl]-4-(pentafluorothio)benzamide] | 10 | –
CC(C#N)(COc1cccc(F)c1Cl)NC(=O)c1ccc(S(F)(F)(F)(F)F)cc1 (centres unmarked) [Example 39, N-[2-(2-Chloro-3-fluorophenoxy)-1-cyano-1-methylethyl]-4-(pentafluorothio)benzamide] | 30 | –
